Patent US9980943B2, “Methods of treating muscular dystrophy” (BOARD OF REGENTS OF THE NEVADA SYSTEM OF HIGHER EDUCATION, …, priority 2013, dated 2018)

Key:
Assay type in all cases: cell-based, mouse
[1] = tested on: α7 integrin (LacZ reporter in α7+/LacZ myotubes); assay: Myotube α7 integrin FDG assay (Burkin assay in myotubes, 96-well); conditions: myotubes
[2] = tested on: β-galactosidase in CMV-LacZ C2C12 myotubes; assay: CMV-LacZ secondary screen in C2C12 myotubes (β-Gal stabilizing assay); conditions: for CMV-LACZ in Myotubes (β-galactosidase activity relative to DMSO): CMV-LacZ C2C12 myotubes, 96-well format
How it was run: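 CMV-LacZ C2C12 line (clonal, FDG-screened); myoblasts/myotubes dosed 0.5–40 μM (0.5, 1, 5, 10, 20, 40 μM); n=2 per point; β-gal stabilization read-out.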

[3] = tested on: α7 integrin (LacZ reporter in α7βgal+/− myoblasts); assay: Myoblast α7+/LacZ integrin FDG assay (Burkin assay in myoblasts, 96-well); conditions: α7+/LacZ myoblasts, 96-well
[4] = 5 uM, C2C12 CMV-LacZ myotubes, fold relative to DMSO
[5] = 10 uM, C2C12 CMV-LacZ myotubes, fold relative to DMSO
[6] = 20 uM, C2C12 CMV-LacZ myotubes, fold relative to DMSO
[7] = 40 uM, C2C12 CMV-LacZ myotubes, fold relative to DMSO

| SMILES | Burkin Assay in Myotubes, α7 integrin LacZ reporter signal relative to DMSO ([1]; 0.5 uM) | Burkin Assay in Myotubes, α7 integrin LacZ reporter signal relative to DMSO ([1]; 1 uM) | Burkin Assay in Myotubes, α7 integrin LacZ reporter signal relative to DMSO ([1]; 5 uM) | Burkin Assay in Myotubes, α7 integrin LacZ reporter signal relative to DMSO ([1]; 10 uM) | Burkin Assay in Myotubes, α7 integrin LacZ reporter signal relative to DMSO ([1]; 20 uM) | Burkin Assay in Myotubes, α7 integrin LacZ reporter signal relative to DMSO ([1]; 40 uM) | CMV-LACZ in Myotubes, signal relative to DMSO [2, 4] | CMV-LACZ in Myotubes, signal relative to DMSO [2, 5] | CMV-LACZ in Myotubes, signal relative to DMSO [2, 6] | CMV-LACZ in Myotubes, signal relative to DMSO [2, 7] | Burkin Assay in Myoblasts, signal relative to DMSO ([3]; 0.5 uM) | Burkin Assay in Myoblasts, signal relative to DMSO ([3]; 1 uM) | Burkin Assay in Myoblasts, signal relative to DMSO ([3]; 5 uM) | Burkin Assay in Myoblasts, signal relative to DMSO ([3]; 10 uM) | Burkin Assay in Myoblasts, signal relative to DMSO ([3]; 20 uM) | Burkin Assay in Myoblasts, signal relative to DMSO ([3]; 40 uM) | Burkin Assay in Myotubes (signal relative to DMSO) ([1]; 0.5 uM) | Burkin Assay in Myotubes (signal relative to DMSO) ([1]; 1 uM) | Burkin Assay in Myotubes (signal relative to DMSO) ([1]; 5 uM) | Burkin Assay in Myotubes (signal relative to DMSO) ([1]; 10 uM) | also measured |
| --- | --- | --- | --- | --- | --- | --- | --- | --- | --- | --- | --- | --- | --- | --- | --- | --- | --- | --- | --- | --- | --- |
| COc1ccc(-c2cc(COc3ccccc3)on2)cc1 [MLS000695955-01] | – | – | – | – | – | – | – | – | – | – | – | – | – | – | – | – | – | – | – | – | fold induction at 0.5 µM ([1]; Mus musculus, Myotube, 0.5 uM, read-out: Burkin Assay in Myotubes, α7 integrin LacZ reporter signal relative to DMSO): 0.945; fold induction at 1 µM ([1]; Mus musculus, Myotube, 1 uM, read-out: Burkin Assay in Myotubes, α7 integrin LacZ reporter signal relative to DMSO): 1.03; fold induction at 5 µM ([1]; Mus musculus, Myotube, 5 uM, read-out: Burkin Assay in Myotubes, α7 integrin LacZ reporter signal relative to DMSO): 1.15; fold induction at 10 µM ([1]; Mus musculus, Myotube, 10 uM, read-out: Burkin Assay in Myotubes, α7 integrin LacZ reporter signal relative to DMSO): 1.32; fold induction at 20 µM ([1]; Mus musculus, Myotube, 20 uM, read-out: Burkin Assay in Myotubes, α7 integrin LacZ reporter signal relative to DMSO): 1.23; fold induction at 40 µM ([1]; Mus musculus, Myotube, 40 uM, read-out: Burkin Assay in Myotubes, α7 integrin LacZ reporter signal relative to DMSO): 1.39; fold induction at 5 µM ([2]; Mus musculus, C2C12, read-out: CMV-LACZ in Myotubes, signal relative to DMSO, 5 uM, C2C12 CMV-LacZ myotubes, fold relative to DMSO): 0.789; fold induction at 10 µM ([2]; Mus musculus, C2C12, read-out: CMV-LACZ in Myotubes, signal relative to DMSO, 10 uM, C2C12 CMV-LacZ myotubes, fold relative to DMSO): 0.896; fold induction at 20 µM ([2]; Mus musculus, C2C12, read-out: CMV-LACZ in Myotubes, signal relative to DMSO, 20 uM, C2C12 CMV-LacZ myotubes, fold relative to DMSO): 0.992; fold induction at 40 µM ([2]; Mus musculus, C2C12, read-out: CMV-LACZ in Myotubes, signal relative to DMSO, 40 uM, C2C12 CMV-LacZ myotubes, fold relative to DMSO): 0.93; fold induction at 0.5 µM ([3]; Mus musculus, Myoblast, 48 h, 0.5 uM, read-out: Burkin Assay in Myoblasts, signal relative to DMSO): 0.902; fold induction at 1 µM ([3]; Mus musculus, Myoblast, 48 h, 1 uM, read-out: Burkin Assay in Myoblasts, signal relative to DMSO): 0.871; fold induction at 5 µM ([3]; Mus musculus, Myoblast, 48 h, 5 uM, read-out: Burkin Assay in Myoblasts, signal relative to DMSO): 1.08; fold induction at 10 µM ([3]; Mus musculus, Myoblast, 48 h, 10 uM, read-out: Burkin Assay in Myoblasts, signal relative to DMSO): 1.06; fold induction at 20 µM ([3]; Mus musculus, Myoblast, 48 h, 20 uM, read-out: Burkin Assay in Myoblasts, signal relative to DMSO): 0.961; fold induction at 40 µM ([3]; Mus musculus, Myoblast, 48 h, 40 uM, read-out: Burkin Assay in Myoblasts, signal relative to DMSO): 1.03 |
| COc1ccc(N2CCN(CCC3Oc4cc([N+](=O)[O-])ccc4NC3=O)CC2)cc1 (centres unmarked) [MLS000696445-01] | 0.8602 | 0.8637 | 0.9714 | 0.625 | 0.5843 | 0.8433 | 1.268 | 1.011 | 1.122 | 0.924 | 1.013 | 0.5621 | 0.867 | 0.8807 | 0.813 | 0.807 | – | – | – | – | – |
| O=C(N/N=C/c1cn[nH]c1-c1ccc(F)cc1)c1ccncc1 [MLS000698686-01] | – | – | – | – | – | – | 0.8364 | 0.9727 | 0.8864 | 0.8864 | – | – | – | – | – | – | 0.8838 | 0.6159 | 1.013 | 0.966 | Burkin Assay in Myotubes (signal relative to DMSO) ([1]; 20 uM): 0.6986; Burkin Assay in Myotubes (signal relative to DMSO) ([1]; 40 uM): 0.9722; Burkin Assay in Myoblasts, value relative to DMSO ([3]; 0.5 uM): 1.037; Burkin Assay in Myoblasts, value relative to DMSO ([3]; 1 uM): 1.018; Burkin Assay in Myoblasts, value relative to DMSO ([3]; 5 uM): 1.054; Burkin Assay in Myoblasts, value relative to DMSO ([3]; 10 uM): 1.075; Burkin Assay in Myoblasts, value relative to DMSO ([3]; 20 uM): 0.8456; Burkin Assay in Myoblasts, value relative to DMSO ([3]; 40 uM): 0.8252 |
| CCOc1ccc(NC(=O)CN2C(=O)S/C(=C/c3cccn3C)C2=O)cc1 [MLS000702680-01] | 1.016 | 0.9196 | 0.9678 | 0.7773 | 0.8074 | 0.7464 | 1.008 | 1.107 | 1.233 | 1.181 | 0.845 | 0.8804 | 0.8623 | 0.8908 | 0.6925 | 0.6264 | – | – | – | – | – |
| O=C(Nc1ccccc1F)c1ccc([N+](=O)[O-])s1 [MLS000703499-01] | 0.9725 | 0.8809 | 1.059 | 0.8518 | 1.101 | 0.4494 | 0.9313 | 0.9968 | 0.689 | 0.769 | 0.7093 | 1.017 | 0.9278 | 0.7632 | 0.4465 | 0.1043 | – | – | – | – | – |
| O=C(/C(=C(/[O-])c1ccccc1)[n+]1ccccc1)c1ccc([N+](=O)[O-])cc1 [MLS000705922-01] | – | – | – | – | – | – | – | – | – | – | – | – | – | – | – | – | 0.8984 | 1.137 | 0.8511 | 0.9544 | Burkin Assay in Myotubes (signal relative to DMSO) ([1]; 20 uM): 0.9072; Burkin Assay in Myotubes (signal relative to DMSO) ([1]; 40 uM): 1.039; CMV-LACZ in Myotubes (β-galactosidase activity relative to DMSO) ([2]; 5 uM): 0.8776; CMV-LACZ in Myotubes (β-galactosidase activity relative to DMSO) ([2]; 10 uM): 0.9306; CMV-LACZ in Myotubes (β-galactosidase activity relative to DMSO) ([2]; 20 uM): 0.9302; CMV-LACZ in Myotubes (β-galactosidase activity relative to DMSO) ([2]; 40 uM): 0.9947; Burkin Assay in Myoblasts, value relative to DMSO ([3]; 0.5 uM): 0.9627; Burkin Assay in Myoblasts, value relative to DMSO ([3]; 1 uM): 1.02; Burkin Assay in Myoblasts, value relative to DMSO ([3]; 5 uM): 0.7282; Burkin Assay in Myoblasts, value relative to DMSO ([3]; 10 uM): 0.7283; Burkin Assay in Myoblasts, value relative to DMSO ([3]; 20 uM): 0.8892; Burkin Assay in Myoblasts, value relative to DMSO ([3]; 40 uM): 0.8783 |
| Cc1cc(C)nc(NC(=O)c2ccc(Cl)cc2Cl)n1 [MLS000706349-01] | 1.193 | 1.008 | 0.9738 | 0.9294 | 1.073 | 0.9239 | 0.9465 | 0.9553 | 1.0245 | 1.1355 | 1.086 | 0.9797 | 0.8593 | 0.8434 | 0.8584 | 0.6533 | – | – | – | – | – |
| S=c1[nH]nc(Cn2cnc3ccccc32)n1-c1ccccc1 [MLS000707281-01] | – | – | – | – | – | – | – | – | – | – | – | – | – | – | – | – | 1.011 | 0.6537 | 1.059 | 0.7505 | Burkin Assay in Myotubes (signal relative to DMSO) ([1]; 20 uM): 1.156; Burkin Assay in Myotubes (signal relative to DMSO) ([1]; 40 uM): 1.141; CMV-LACZ in Myotubes (β-galactosidase activity relative to DMSO) ([2]; 5 uM): 0.8706; CMV-LACZ in Myotubes (β-galactosidase activity relative to DMSO) ([2]; 10 uM): 0.9255; CMV-LACZ in Myotubes (β-galactosidase activity relative to DMSO) ([2]; 20 uM): 0.9474; CMV-LACZ in Myotubes (β-galactosidase activity relative to DMSO) ([2]; 40 uM): 0.9526; Burkin Assay in Myoblasts, value relative to DMSO ([3]; 0.5 uM): 0.9507; Burkin Assay in Myoblasts, value relative to DMSO ([3]; 1 uM): 0.9756; Burkin Assay in Myoblasts, value relative to DMSO ([3]; 5 uM): 0.8935; Burkin Assay in Myoblasts, value relative to DMSO ([3]; 10 uM): 0.8854; Burkin Assay in Myoblasts, value relative to DMSO ([3]; 20 uM): 0.8359; Burkin Assay in Myoblasts, value relative to DMSO ([3]; 40 uM): 0.7969 |
